Measured values taken from ChEMBL document CHEMBL4311991, “Design, synthesis, and biological evaluation of 1-substituted -2-aryl imidazoles targeting tubulin polymerization as potential anticancer agents” (Eur J Med Chem, 2019).
Converted amounts (≈) assume the structure as drawn. The source made the active and inactive calls. No cut-off for these calls is given here.

Experiments:
MDA-MB-468 [1] = test: Induction of apoptosis in human MDA-MB-468 cells assessed as necrotic cells at 100 nM after 72 hrs by Annexin-FITC/propidium iodide staining based flow cytometry (reference value: 0.97 to 1.29%); format: functional
MDA-MB-468 [2] = test: Induction of apoptosis in human MDA-MB-468 cells assessed as late apoptotic cells at 100 nM after 72 hrs by Annexin-FITC/propidium iodide staining based flow cytometry (reference value: 1.03 to 1.59%); format: functional
MDA-MB-231 = test: Antiproliferative activity against human MDA-MB-231 cells assessed as reduction in cell viability after 72 hrs by MTT assay; format: functional, cell-based; conditions: MDA-MB-231, 72 h
[3] = Aqueous solubility of the compound at 1 mg/ml after 24 hrs by shake flask method based HPLC analysis; format: physicochemical
T47D = test: Antiproliferative activity against human T47D cells assessed as reduction in cell viability after 72 hrs by MTT assay; format: functional, cell-based
MDA-MB-468 [4] = test: Induction of cell cycle arrest in human MDA-MB-468 cells assessed as accumulation of cells at G2/M phase at IC50 concentration by propidium iodide staining-based flow cytometric analysis; format: functional; conditions: TDE = time-dependent effect
[5] = Ratio of compound aqueous solubility to CA-4 aqueous solubility at 1 mg/ml after 24 hrs by shake flask method based HPLC analysis; format: physicochemical; conditions: buffer
HUVEC = test: Cytotoxicity against HUVEC assessed as reduction in cell viability after 72 hrs by MTT assay; format: cell-based; conditions: Homo sapiens
MDA-MB-468 [6] = test: Induction of apoptosis in human MDA-MB-468 cells assessed as early apoptotic cells at 100 nM after 24 hrs by Annexin-FITC/propidium iodide staining based flow cytometry (reference value: 0.35 to 1.25%); format: functional
MDA-MB-468 [7] = test: Induction of apoptosis in human MDA-MB-468 cells assessed as early apoptotic cells at 100 nM after 72 hrs by Annexin-FITC/propidium iodide staining based flow cytometry (reference value: 0.35 to 1.25%); format: functional
MDA-MB-468 [8] = test: Induction of apoptosis in human MDA-MB-468 cells assessed as necrotic cells at 100 nM after 48 hrs by Annexin-FITC/propidium iodide staining based flow cytometry (reference value: 0.97 to 1.29%); format: functional
MDA-MB-468 [9] = test: Induction of apoptosis in human MDA-MB-468 cells assessed as late apoptotic cells at 100 nM after 24 hrs by Annexin-FITC/propidium iodide staining based flow cytometry (reference value: 1.03 to 1.59%); format: functional
MDA-MB-468 [10] = test: Induction of apoptosis in human MDA-MB-468 cells assessed as late apoptotic cells at 100 nM after 48 hrs by Annexin-FITC/propidium iodide staining based flow cytometry (reference value: 1.03 to 1.59%); format: functional
MDA-MB-468 [11] = test: Induction of apoptosis in human MDA-MB-468 cells assessed as viable cells at 100 nM after 72 hrs by Annexin-FITC/propidium iodide staining based flow cytometry (reference value: 96.8%); format: functional; conditions: MDA-MB-468, 72 h, read-out: Activity
MDA-MB-468 [12] = test: Induction of apoptosis in human MDA-MB-468 cells assessed as viable cells at 100 nM after 48 hrs by Annexin-FITC/propidium iodide staining based flow cytometry (reference value: 96.8%); format: functional; conditions: MDA-MB-468, 48 h, read-out: Activity
[13] = Toxicity in nude mouse xenografted with human MDA-MB-468 cells assessed as effect on body weight at 30 to 60 mg/kg, ip administered every other day for 21 days; format: organism-based; conditions: in vivo, 504 h
MDA-MB-468 [14] = test: Induction of apoptosis in human MDA-MB-468 cells assessed as necrotic cells at 100 nM after 24 hrs by Annexin-FITC/propidium iodide staining based flow cytometry (reference value: 0.97 to 1.29%); format: functional
HCT-15 = test: Antiproliferative activity against human HCT15 cells assessed as reduction in cell viability after 72 hrs by MTT assay; format: functional, cell-based; conditions: HCT-15, 72 h
HeLa = test: Antiproliferative activity against human HeLa cells assessed as reduction in cell viability after 72 hrs by MTT assay; format: functional, cell-based
Tubulin (Sus scrofa) [15] = target: T1, Tubulin (Sus scrofa) (UniProt P02554+P02550); test: Inhibition of pig brain tubulin polymerization at 3 to 6 uM in presence of GTP by spectrophotometric analysis relative to control
[16] = 1-Octanol/water partition coefficient, log P of compound at 1 mg after 1 hr by HPLC analysis; format: physicochemical
Tubulin = Tubulin (Sus scrofa, UniProt P02554+P02550); test: (§1) Inhibition of pig brain tubulin polymerization in presence of GTP by spectrophotometric analysis
Tubulin (Sus scrofa) [17] = target: T1, Tubulin (Sus scrofa); test: as §1
Mus musculus [18] = organism: Mus musculus; test: Inhibition of tubulin polymerization in mouse B16F10 cells assessed as disruption of microtubule network at 400 nM incubated for 6 hrs by DAPI staining based confocal microscopy; format: cell-based
MDA-MB-468 [19] = test: Induction of apoptosis in human MDA-MB-468 cells assessed as early apoptotic cells at 100 nM after 48 hrs by Annexin-FITC/propidium iodide staining based flow cytometry (reference value: 0.35 to 1.25%); format: functional
MDA-MB-468 [20] = test: Antitumor activity against human MDA-MB-468 cells xenografted in nude mouse assessed as tumour growth inhibition at 30 mg/kg, ip administered every other day for 21 days relative to control; format: functional; conditions: MDA-MB-468, ip, 504 h, read-out: TGI
MDA-MB-468 [21] = test: Antitumor activity against human MDA-MB-468 cells xenografted in nude mouse assessed as tumour growth inhibition at 60 mg/kg, ip administered every other day for 21 days relative to control; format: functional; conditions: MDA-MB-468, ip, 504 h, read-out: TGI
MDA-MB-468 [22] = test: Antiproliferative activity against human MDA-MB-468 cells assessed as reduction in cell viability after 72 hrs by MTT assay; format: functional, cell-based; conditions: MDA-MB-468, 72 h
HT-29 = test: Antiproliferative activity against human HT-29 cells assessed as reduction in cell viability after 72 hrs by MTT assay; format: functional, cell-based; conditions: HT-29, 72 h
MDA-MB-468 [23] = test: Induction of apoptosis in human MDA-MB-468 cells assessed as viable cells at 100 nM after 24 hrs by Annexin-FITC/propidium iodide staining based flow cytometry (reference value: 96.8%); format: functional; conditions: MDA-MB-468, 24 h, read-out: Activity
[24] = Retention time of the compound using acetonitrile:water at ratio of 50:50 as mobile phase by reverse-phase HPLC analysis; format: physicochemical; conditions: buffer
Mus musculus [25] = organism: Mus musculus; test: Inhibition of tubulin polymerization in mouse B16F10 cells assessed as disruption of microtubule network at 200 nM incubated for 6 hrs by DAPI staining based confocal microscopy; format: cell-based

T1 sequence (P02550 whole entry, looked up): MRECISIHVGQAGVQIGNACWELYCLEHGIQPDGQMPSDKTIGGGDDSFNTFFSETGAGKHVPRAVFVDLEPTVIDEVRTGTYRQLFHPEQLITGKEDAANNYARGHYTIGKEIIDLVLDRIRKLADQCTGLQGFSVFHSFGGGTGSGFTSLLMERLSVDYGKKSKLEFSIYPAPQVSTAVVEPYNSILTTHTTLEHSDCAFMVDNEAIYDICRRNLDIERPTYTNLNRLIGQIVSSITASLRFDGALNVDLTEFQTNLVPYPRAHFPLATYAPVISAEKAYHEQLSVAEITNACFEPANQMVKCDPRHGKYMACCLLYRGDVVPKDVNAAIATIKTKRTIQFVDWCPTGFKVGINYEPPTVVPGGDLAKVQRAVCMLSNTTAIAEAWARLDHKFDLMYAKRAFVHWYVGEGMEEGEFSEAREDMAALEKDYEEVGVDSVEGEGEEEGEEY
T1 sequence (P02554 whole entry, looked up): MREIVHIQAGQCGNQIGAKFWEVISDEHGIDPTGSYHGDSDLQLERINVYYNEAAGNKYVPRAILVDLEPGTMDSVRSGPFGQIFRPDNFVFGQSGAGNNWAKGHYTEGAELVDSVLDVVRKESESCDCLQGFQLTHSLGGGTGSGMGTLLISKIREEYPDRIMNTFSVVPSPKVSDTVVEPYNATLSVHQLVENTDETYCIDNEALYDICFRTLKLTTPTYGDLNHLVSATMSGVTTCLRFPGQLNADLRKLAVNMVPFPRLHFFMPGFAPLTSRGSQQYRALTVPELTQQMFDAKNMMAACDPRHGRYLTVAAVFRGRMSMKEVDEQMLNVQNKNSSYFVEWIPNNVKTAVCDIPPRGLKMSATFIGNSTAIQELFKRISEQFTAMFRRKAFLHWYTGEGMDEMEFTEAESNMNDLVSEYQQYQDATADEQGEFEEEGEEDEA

`COc1ccc(-n2ccnc2-c2cc(OC)c(OC)c(OC)c2)cc1N` gave an Activity (MDA-MB-468 [1]) of 3.27%, an Activity (MDA-MB-468 [2]) of 22.9% and an IC50 (MDA-MB-231) of 1040 nM. The solubility thermodynamic at 24 h [3] was 36.7 µg/mL (≈ 103 µM), the IC50 (T47D) was 500 nM and the Activity (MDA-MB-468 [4]) was “Tde”. For the same compound, the Ratio [5] was 13, the IC50 (HUVEC) was 58500 nM and the Activity (MDA-MB-468 [6]) was 0.38%. The Activity (MDA-MB-468 [7]) was 1.53%, the Activity (MDA-MB-468 [8]) was 4.19% and the Activity (MDA-MB-468 [9]) was 3.56%. The Activity (MDA-MB-468 [10]) was 15%, the viability at 0.1 µM (MDA-MB-468 [11]) was 72.3% and the viability at 0.1 µM (MDA-MB-468 [12]) was 79.6%. The Activity [13] was “Non-Toxic”, the Activity (MDA-MB-468 [14]) was 1.51% and the IC50 (HCT-15) was 100 nM. For the same compound, the IC50 (HeLa) was 80 nM, the inhibition (Tubulin (Sus scrofa) [15]) was 100% and the logP at 1 h [16] was 1.77. The IC50 (Tubulin) was 400 nM, the inhibition (Tubulin (Sus scrofa) [17]) was “Dose-dependent effect” and the inhibition (Mus musculus [18]) was “Active”. For the same compound, the Activity (MDA-MB-468 [19]) was 1.18%, the inhibition in vivo at 30 mg/kg (MDA-MB-468 [20]) was 48% and the inhibition in vivo at 60 mg/kg (MDA-MB-468 [21]) was 77%. It also gave an IC50 (MDA-MB-468 [22]) of 90 nM, an IC50 (HT-29) of 200 nM and a viability at 0.1 µM (MDA-MB-468 [23]) of 94.5%. The Retention_time [24] was 5 min.
In the case of `COc1ccc(/C=C\c2cc(OC)c(OC)c(OC)c2)cc1O` [COMBRETASTATIN A4], the Activity (MDA-MB-468 [1]) is reported as 9.4%, the Activity (MDA-MB-468 [2]) is reported as 55.3% and the IC50 (MDA-MB-231) is reported as 13.5 nM. For the same compound, the IC50 (T47D) was 14.6 nM, the Activity (MDA-MB-468 [4]) was “Tde” and the IC50 (HUVEC) was > 100000 nM. The Activity (MDA-MB-468 [6]) was 1.44%, the Activity (MDA-MB-468 [7]) was 1.84% and the Activity (MDA-MB-468 [8]) was 7.2%. For the same compound, the Activity (MDA-MB-468 [9]) was 15.7%, the Activity (MDA-MB-468 [10]) was 31.9% and the inhibition (Mus musculus [25]) was “Active”. The viability at 0.1 µM (MDA-MB-468 [11]) was 33.4%, the viability at 0.1 µM (MDA-MB-468 [12]) was 60% and the Activity (MDA-MB-468 [14]) was 3.67%. The IC50 (HCT-15) was 3.2 nM, the IC50 (HeLa) was 9.2 nM and the Activity (MDA-MB-468 [19]) was 0.84%. The inhibition in vivo at 60 mg/kg (MDA-MB-468 [21]) was 87.5%, the IC50 (MDA-MB-468 [22]) was 6.5 nM and the IC50 (HT-29) was 30.5 nM. For the same compound, the viability at 0.1 µM (MDA-MB-468 [23]) was 79.2% and the Retention_time [24] was 12.5 min.
